Experimental data as given in the NIST ThermoML archive (doi:10.1016/j.jct.2009.04.004).

Assay: molar heat capacity at constant pressure
Conditions: 101.33 kPa, Crystal, Small sample (50 mg) DSC

[Na+].[O]=[Re](=[O])(=[O])[O-] [sodium perrhenate]
Conditions | molar heat capacity at constant pressure [J/K/mol]
298.15 K | 118.8
323.15 K | 122.2
348.15 K | 125.5
373.15 K | 128.9
398.15 K | 131.8
423.15 K | 135.1
448.15 K | 137.2
473.15 K | 139.7
498.15 K | 142.3
523.15 K | 144.8
548.15 K | 146.9
573.15 K | 148.1
598.15 K | 149.4
